# In US20110183978A1, “Phenylpyri(mi)dinylazoles” (Bayer CropScience AG, priority 2009, published 2011):
# How the values were obtained:
# Pyricularia grisea = assay type: in vivo; conditions: 500 ppm; rice plants sprayed 24 hours before inoculation; scored after 6 days
# Phakopsora pachyrhizi = assay: Example Z: in vivo test on Phakopsora pachyrhizi (soya bean rust/protective); conditions: soya bean rust, protective, 250 ppm active substance, assessed 11 days after inoculation
# Rhynchosporium secalis = assay: Example S: in vivo test on Rhynchosporium secalis (leaf scald in barley/protective); conditions: 336 h, barley, protective, 1000 ppm active substance, assessed 14 days after inoculation, read-out: % Wirkungsgrad (activity level)
# Outline: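 Protective test: young barley plants were sprayed with active substance in dimethylacetamide/alkylaryl polyglycol ether emulsion diluted with water. Once dry, plants were inoculated with R. secalis spore suspension. Assessment was made 14 days after inoculation.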
Structure (SMILES),% Activity level (Pyricularia grisea) [%],% Activity level (Phakopsora pachyrhizi) [%],pest or weed control at 1000 ppm (Rhynchosporium secalis) [%]
CC(C)Cn1cc(-c2ccncc2)c(-c2ccc(F)cc2)n1 [Compound 1],82,91,
CC(C)C(=O)Nc1cc(-c2cn(C(C)C)nc2-c2ccc(F)cc2)ccn1 [Compound 84],,98,90
CC(C)n1cc(-c2ccnc(NC(=O)C3CC3)c2)c(-c2ccc(F)cc2)n1 [Compound 86],,,86
